Source: ChEMBL document CHEMBL6182926, “Design, Synthesis, and Biological Activity Evaluation of Deuterated Diphenyl Azole Alcohol-Based CYP51 Inhibitors” (J Med Chem, 2025)
Values after ≈ are worked out from the molar mass of the structure shown.

Tests used:
Candida parapsilosis = assay: Antifungal activity against Candida parapsilosis GIM 2.190 assessed as inhibition of visible growth; assay type: functional; conditions: Lodderomyces parapsilosis
Aspergillus fumigatus = assay: Antifungal activity against Aspergillus fumigatus CGMCC 3.7795 assessed as inhibition of visible growth; assay type: functional
Cryptococcus neoformans = assay: Antifungal activity against Cryptococcus neoformans CGMCC 2.3161 assessed as inhibition of visible growth; assay type: functional
Candida tropicalis = assay: Antifungal activity against Candida tropicalis CGMCC 2.3739 assessed as inhibition of visible growth; assay type: functional
Candida albicans [1] = assay: Antifungal activity against Candida albicans SC 5314 assessed as inhibition of visible growth; assay type: functional
Pichia kudriavzevii = assay: Antifungal activity against Candida krusei AS 2.1045 assessed as inhibition of visible growth; assay type: functional
Nakaseomyces glabratus = assay: Antifungal activity against Clinical isolate Candida glabrata assessed as inhibition of visible growth; assay type: functional
Candida albicans [2] = assay: Antifungal activity against Candida albicans CPCC 400616 assessed as inhibition of visible growth; assay type: functional
[3] = Metabolic stability in human liver microsomes assessed as compound remaining measured up to 60 mins by LC-MS/MS analysis; assay type: ADME, Microsome; conditions: liver microsomes, read-out: Activity
[4] = Metabolic stability in human liver microsomes assessed as half life by LC-MS/MS analysis; assay type: ADME, Microsome; conditions: liver microsomes

Row | SMILES | MIC80 (Candida parapsilosis) [µg/mL] | MIC80 (Aspergillus fumigatus) [µg/mL] | MIC80 (Cryptococcus neoformans) [µg/mL] | MIC80 (Candida tropicalis) [µg/mL] | MIC80 (Candida albicans [1]) [µg/mL] | MIC80 (Pichia kudriavzevii) [µg/mL] | MIC80 (Nakaseomyces glabratus) [µg/mL] | MIC80 (Candida albicans [2]) [µg/mL] | remaining at 1 h [3] [%] | half-life [4] [min]
1 | [2H]C([2H])([2H])N(Cc1ccc(-c2ccc(Cl)c(F)c2)cc1)[C@H](C)[C@](O)(Cn1cncn1)c1ccc(F)cc1F | 0.006 (≈ 0.0119 µM) | 0.006 (≈ 0.0119 µM) | 0.006 (≈ 0.0119 µM) | 0.006 (≈ 0.0119 µM) | 0.006 (≈ 0.0119 µM) | 0.006 (≈ 0.0119 µM) | 0.012 (≈ 0.0238 µM) | 0.006 (≈ 0.0119 µM) | 4.91 | 14.1
2 | O[C@@](Cn1cnnn1)(c1ccc(F)cc1F)C(F)(F)c1ccc(-c2ccc(OCC(F)(F)F)cc2)cn1 [OTESECONAZOLE] | 0.006 (≈ 0.0114 µM) | > 64 | 0.012 (≈ 0.0228 µM) | 0.006 (≈ 0.0114 µM) | 0.006 (≈ 0.0114 µM) | 0.1 (≈ 0.19 µM) | 0.1 (≈ 0.19 µM) | 0.006 (≈ 0.0114 µM) |  | 
3 | [2H]C([2H])([2H])N(Cc1ccc(-c2ccc(Cl)cc2)nc1)[C@H](C)[C@](O)(Cn1cncn1)c1ccc(F)cc1F | 0.006 (≈ 0.0123 µM) | 0.05 (≈ 0.103 µM) | 0.006 (≈ 0.0123 µM) | 0.006 (≈ 0.0123 µM) | 0.006 (≈ 0.0123 µM) | 0.012 (≈ 0.0246 µM) | 0.012 (≈ 0.0246 µM) | 0.006 (≈ 0.0123 µM) | 1.07 | 2.3
4 | CN(Cc1ccc(-c2ccc(-c3ccccc3)cc2)cn1)CC(O)(Cn1cncn1)c1ccc(F)cc1F (stereo not drawn) | 0.012 (≈ 0.0235 µM) |  | 0.05 (≈ 0.0977 µM) | 0.012 (≈ 0.0235 µM) | 0.012 (≈ 0.0235 µM) | 0.1 (≈ 0.195 µM) | 0.1 (≈ 0.195 µM) | 0.012 (≈ 0.0235 µM) |  | 
5 | OC(CN(Cc1ccc(-c2ccc(Cl)cc2)cc1)C1CC1)(Cn1cncn1)c1ccc(F)cc1F (stereo not drawn) | > 3.2 |  | > 3.2 | > 3.2 | > 3.2 | > 3.2 | > 3.2 | > 3.2 |  | 
6 | CN(Cc1ccc(-c2ccc(Cl)cc2)nc1)CC(O)(Cn1cncn1)c1ccc(F)cc1F (stereo not drawn) | 0.006 (≈ 0.0128 µM) |  | 0.05 (≈ 0.106 µM) | 0.012 (≈ 0.0255 µM) | 0.012 (≈ 0.0255 µM) | 0.025 (≈ 0.0532 µM) | 0.1 (≈ 0.213 µM) | 0.012 (≈ 0.0255 µM) |  | 
7 | CN(Cc1ccc(-c2ccc(Cl)cc2)cc1F)CC(O)(Cn1cncn1)c1ccc(F)cc1F (stereo not drawn) | 0.006 (≈ 0.0123 µM) |  | 0.012 (≈ 0.0246 µM) | 0.006 (≈ 0.0123 µM) | 0.006 (≈ 0.0123 µM) | 0.025 (≈ 0.0513 µM) | 0.025 (≈ 0.0513 µM) | 0.006 (≈ 0.0123 µM) |  | 
8 | CN(Cc1ccc(-c2ccc(Cl)cc2)o1)CC(O)(Cn1cncn1)c1ccc(F)cc1F (stereo not drawn) | 0.1 (≈ 0.218 µM) |  | 0.4 (≈ 0.872 µM) | 0.025 (≈ 0.0545 µM) | 0.025 (≈ 0.0545 µM) | 0.4 (≈ 0.872 µM) | 0.4 (≈ 0.872 µM) | 0.05 (≈ 0.109 µM) |  | 

The remaining lines, values ahead:

Row | MIC80 (Candida parapsilosis) [µg/mL] | MIC80 (Aspergillus fumigatus) [µg/mL] | MIC80 (Cryptococcus neoformans) [µg/mL] | MIC80 (Candida tropicalis) [µg/mL] | MIC80 (Candida albicans [1]) [µg/mL] | MIC80 (Pichia kudriavzevii) [µg/mL] | MIC80 (Nakaseomyces glabratus) [µg/mL] | MIC80 (Candida albicans [2]) [µg/mL] | remaining at 1 h [3] [%] | half-life [4] [min] | SMILES
9 | 0.012 (≈ 0.023 µM) | 0.05 (≈ 0.0958 µM) | 0.025 (≈ 0.0479 µM) | 0.012 (≈ 0.023 µM) | 0.012 (≈ 0.023 µM) | 0.05 (≈ 0.0958 µM) | 0.025 (≈ 0.0479 µM) | 0.012 (≈ 0.023 µM) |  |  | [2H]C([2H])([2H])N(Cc1ccc(-c2ccc(Cl)cc2F)cc1F)[C@H](C)[C@](O)(Cn1cncn1)c1ccc(F)cc1F
10 | 0.006 (≈ 0.0119 µM) | 0.025 (≈ 0.0496 µM) | 0.012 (≈ 0.0238 µM) | 0.006 (≈ 0.0119 µM) | 0.006 (≈ 0.0119 µM) | 0.012 (≈ 0.0238 µM) | 0.012 (≈ 0.0238 µM) | 0.006 (≈ 0.0119 µM) |  |  | [2H]C([2H])([2H])N(Cc1ccc(-c2ccc(Cl)cc2)cc1F)[C@H](C)[C@](O)(Cn1cncn1)c1ccc(F)cc1F
11 | 0.006 (≈ 0.0119 µM) | 0.012 (≈ 0.0238 µM) | 0.012 (≈ 0.0238 µM) | 0.006 (≈ 0.0119 µM) | 0.006 (≈ 0.0119 µM) | 0.012 (≈ 0.0238 µM) | 0.025 (≈ 0.0496 µM) | 0.006 (≈ 0.0119 µM) |  |  | [2H]C([2H])([2H])N(Cc1ccc(-c2ccc(Cl)cc2F)cc1)[C@H](C)[C@](O)(Cn1cncn1)c1ccc(F)cc1F
12 | 0.006 (≈ 0.0119 µM) | 0.025 (≈ 0.0496 µM) | 0.012 (≈ 0.0238 µM) | 0.006 (≈ 0.0119 µM) | 0.006 (≈ 0.0119 µM) | 0.012 (≈ 0.0238 µM) | 0.025 (≈ 0.0496 µM) | 0.006 (≈ 0.0119 µM) |  |  | [2H]C([2H])([2H])N(Cc1ccc(-c2ccc(Cl)cc2)c(F)c1)[C@H](C)[C@](O)(Cn1cncn1)c1ccc(F)cc1F
13 | 0.006 (≈ 0.0119 µM) | 0.025 (≈ 0.0495 µM) | 0.012 (≈ 0.0238 µM) | 0.006 (≈ 0.0119 µM) | 0.012 (≈ 0.0238 µM) | 0.012 (≈ 0.0238 µM) | 0.012 (≈ 0.0238 µM) | 0.012 (≈ 0.0238 µM) |  |  | [2H]C([2H])([2H])N(Cc1ccc(-c2ccc(Cl)c(F)c2)nc1)[C@H](C)[C@](O)(Cn1cncn1)c1ccc(F)cc1F
